Results reported in US20200000751A1, “CARBOXYLIC ACIDS FOR TREATING/PREVENTING NASAL CONGESTION” (PROPONENT BIOTECH GMBH, priority 2016, published 2020).

Experiment: Stability of test item in solution
Format: physicochemical
Settings: in Locke-Ringer Solution

CCC(=O)[O-].[Na+] [Sodium propionate]
Stability of Test Item in Solution: ≥6 months in Locke-Ringer Solution
